Literature values in patent EP4660212A1, “POLYVINYL ALCOHOL-BASED POLYMER” (Japan Vam & Poval Co., Ltd., priority 2023, dated 2024).

Settings: water at 20°C

Structure (SMILES)	solubility in 100 mL (100 g) of water
c1ccc2cc3ccccc3cc2c1 [anthracene]	about 0.13 mg/100 g water
CCOc1ccccc1C(N)=O [ethenzamide]	about 100 mg/100 g water
